The conditions of series [1]: rats, oral CrCl3 with NSAID; cited from earlier work.
Series [2] deals with JCR rat. The experiment in a line: Lipid levels in JCR rats (chromium picolinate + biotin animal study). In kind it is in vivo. Also on record: Cholesterol / HDL-ch: unit not given here. Here is the method:
In order to test the effects of chromium and biotin, alone and in combination, on insulin sensitivity, a rodent model of “Syndrome X” was employed. Specifically, the JCR rat was utilized as it is a well-established model of obesity and insulin resistance. […] After a baseline phase where accurate weights, body composition, and food intake were assessed, the animals were randomized to either control, CrPic alone, biotin alone, or CrPic/Biotin (See FIG. 5). Animals were weighed weekly and nutrients were given via daily water feeding at a specified dose/kg body weight. A 12-week period of daily treatment of animals was accomplished. […] Specifically, CrPic versus control solutions were given in hyperinsulinemic, insulin-resistant, obese JCR rats. The study was initiated on animals at approximately 4 months of age, and animals were treated specifically for three months. […] 9). […] The improvement in insulin sensitivity was associated with a reduction in total. cholesterol levels compared to lean animals (See, e.g., Table 2, and FIGS. 10 & 11). The effect of the combination of chromium and biotin on lipid levels in the animal study is detailed in Table 2. Specifically, the effect of chromium and biotin on cholesterol levels, high density lipid cholesterol (HDL-ch) levels, and triglyceride levels are recorded in Table 2.

Series [3] relates to JCR rat. As to the kind of experiment: Intraperitoneal glucose tolerance test / glucose disposal in JCR rats. In kind it is in vivo. The following applies: for Glucose Disposal: individual rat, 12 weeks daily treatment via water. Here is the method: In order to test the effects of chromium and biotin, alone and in combination, on insulin sensitivity, a rodent model of “Syndrome X” was employed. Specifically, the JCR rat was utilized as it is a well-established model of obesity and insulin resistance.
After a baseline phase where accurate weights, body composition, and food intake were assessed, the animals were randomized to either control, CrPic alone, biotin alone, or CrPic/Biotin (See FIG. 5). Animals were weighed weekly and nutrients were given via daily water feeding at a specified dose/kg body weight. A 12-week period of daily treatment of animals was accomplished.
At specified time points during the study, glucose and insulin assessments were made. Specific assessments of carbohydrate metabolism were determined using an intraperitoneal glucose tolerance test and an insulin tolerance test. Animals were studied at 6 and 12 weeks with randomization. The specific metabolic testing was as follows:
Following baseline glucose and insulin measurements, 1.5 mg D50W per gram of body weight were given intraperitoneally. Tailsticks were initiated at 30, 60, 90, and 120 minutes following administration of glucose. The areas under curve for insulin and glucose were assessed. Eight animals in each group at 12 weeks were studied. Table 1 details the amount of glucose disposal for animals treated with CrPic and/or biotin at various dosages. Note, “L” represents the lean control; “O-contr” are the obese control rats; “LB” connotes low biotin treatments; “HB” represents high biotin treatments; “LC” and “HC” represent low and high doses of chromium, respectively. FIG. 6 is a graphic representation of the results of the IPGTT studies. […]

In series [4] the test system is streptozotocin-diabetic rats; Otsuka Long-Evans Tokushima Fatty rats. The note with it: high-dose oral or parenteral, cited from earlier work.
Series [5] relates to Type I and type 2 diabetics. The note with it: cited from earlier work.
In a further series the test system is diabetic KK mice. The note with it: high-dose oral or parenteral; cited from earlier work.
The conditions of series [6]: oral biotin intakes of up to 200 mg daily; cited from earlier work.
In series [7] the test system is glycogen synthetase (GS) mRNA. The experiment in a line: Glycogen synthetase (GS) mRNA expression in HSMC. The note with it: CrPic 10 ng/ml, biotin 10 pm, FIG. 4B. In kind it is cell-based, human. Here is the method:
To evaluate the cellular mechanism by […] biotin enhance glycogen synthesis, glycogen synthetase (“GS”) mRNA and glycogen synthesis were assessed. HSMC was incubated with CrPic at 10 ng/ml, biotin at 10 pm, and both CrPic and biotin. […] When evaluating GS mRNA levels, chromium increased gene expression of GS by 26%, biotin by 15%, and the combination by 33%. […] RNA Preparation: Total RNA from the skeletal muscle biopsy was isolated using guanium […], phenol-chloroform extraction, and alcohol precipitation. RNA sample was quantified by spectrophotometer. The absorption ratio (260:280 nm) was between 1.8 to 2.0 for all preparations and the integrity of the RNA was verified on agarose gel colored with ethidium bromide. For RT-PCR, fresh isolated total RNA was used. GS mRNA Level Analysis: GS mRNA levels were analyzed using one-step RT-PCR kits (Clontech Laboratories, Inc., Palo Alto, Calif.). GS first-strand CDNA synthesis was performed from 1 μh of total RNA with 1×[…] plus enzyme mix in 40 mM Tricine, 20 mM Kcl, 3 mM MgCl2, 3.75 ug/ml BSA, 0.2 mM deoxynucleoside triphosphates, 400 pmol of oligo(dt) primer, and 200 pm GS primers (Sense [NT], antisense [NT]) in a final volume of 50 μl. The reaction mixtures were subjected to incubations for 60 min. at 50° C. in the Eppendorf Master gradient cycler (Westbury, N.Y.). […] The band densities were evaluated (Alpha Imager 2000, San Leandro, Calif.). […]

The test system of series [8] is human skeletal muscle culture (HSMC). As to the kind of experiment: Glucose uptake in human skeletal muscle culture. The class given is cell-based. The following applies: FIG. 2.

Here are results for 2 molecules from patent US20050214385A1, “Chromium/biotin treatment of dyslipidemia and diet-induced post prandial hyperglycemia” (priority 2001, published 2005).

“And” between values parts separate entries of the source, which are not always exact repeats. Equal entries are not always repeated. Where two headings read alike, the source gives them in different places.

As to `CC(=O)Oc1ccccc1C(=O)O` [aspirin], in series [1], the Chromium absorption entry was “facilitated”.
For the molecule `O=C(O)CCCC[C@@H]1SC[C@@H]2NC(=O)N[C@@H]21` [biotin], the Cholesterol in the series with JCR rat [2] (Month 0, listed as High Biotin) turned out to be 106; in the series on JCR rat [2] (Month 0, listed as Low Biotin) it was 111; with JCR rat [2] (Month 1, listed as High Biotin), 111; in the series on JCR rat [2] (Month 1, listed as Low Biotin), 117; in the series on JCR rat [2] (Month 2, listed as High Biotin) it was 130; with JCR rat [2] (Month 2, listed as Low Biotin) it was 122. Besides, the Cholesterol stood at 144 with JCR rat [2] (Month 3, listed as High Biotin) and 118 in the series with JCR rat [2] (Month 3, listed as Low Biotin). Further, the HDL-ch is recorded as 43.6 in the series with JCR rat [2] (Month 0, listed as High Biotin); 47.8 with JCR rat [2] (Month 0, listed as Low Biotin); 42 in the series on JCR rat [2] (Month 1, listed as High Biotin); 46.5 in the series with JCR rat [2] (Month 1, listed as Low Biotin); 46.8 with JCR rat [2] (Month 2, listed as High Biotin); 45.8 with JCR rat [2] (Month 2, listed as Low Biotin). In addition, the HDL-ch in the series with JCR rat [2] (Month 3, listed as High Biotin) is listed as 46.9; in the series on JCR rat [2] (Month 3, listed as Low Biotin), 47.3. Moreover, the Triglyceride was found to be 289 mg/dL with JCR rat [2] (Month 0, listed as High Biotin); 317 mg/dL in the series with JCR rat [2] (Month 0, listed as Low Biotin); 292 mg/dL with JCR rat [2] (Month 1, listed as High Biotin); 331 mg/dL in the series on JCR rat [2] (Month 1, listed as Low Biotin); 294 mg/dL in the series on JCR rat [2] (Month 2, listed as High Biotin); 272 mg/dL with JCR rat [2] (Month 2, listed as Low Biotin). The Triglyceride in the series on JCR rat [2] (Month 3, listed as High Biotin) was 301 mg/dL; in the series with JCR rat [2] (Month 3, listed as Low Biotin), 229 mg/dL. Further, the “Glucose Disposal” value was 1.92 mg/dL/min and 2.329 mg/dL/min and 1.879 mg/dL/min and 1.772 mg/dL/min and 1.993 mg/dL/min with JCR rat [3] (listed as HB); 2.21 mg/dL/min and 2.392 mg/dL/min and 1.876 mg/dL/min and 1.768 mg/dL/min and 1.875 mg/dL/min with JCR rat [3] (listed as LB). The “Glucose Disposal, value per treatment group” value with JCR rat [3] (mean per treatment, 12 weeks) was 2.0615 mg/dL/min. The oral glucose tolerance result (in series [4] (pre-diabetic Otsuka Long-Evans Tokushima Fatty rats); in [4] (rats made diabetic with streptozotocin); in the series with diabetic KK mice) was “improve oral glucose tolerance” throughout. In addition, in series [5] (Type I diabetics, insulin temporarily discontinued, 16 mg daily oral), the “fasting plasma glucose levels” value was “lowered fasting plasma glucose levels”. In addition, the “pancreatic beta cell function” value in series [5] (poorly-controlled type 2 diabetics, 3 mg three times per day) is reported as “improved”. Moreover, in [6], the “side effects or toxicities” value was “no side effects or toxicities”. In series [7], the “increase of gene expression of GS (GS mRNA levels)” value turned out to be 15%. Moreover, the glucose uptake entry in series [8] is on record as “chromium alone enhances glucose uptake in contrast to biotin alone”.
